Data taken from PubChem BioAssay (NCI).
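Tested at 5 concentrations; 48 h exposure; 96-well plates; endpoints linearly interpolated, else capped at highest concentration. The concentration for 50% growth inhibition is given as GI50. TGI marks complete inhibition of growth.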

Columns and labels:
Assay in all cases: inhibition of tumour cell growth, NCI panel, 48 h
[1] = test system: 786-0 renal
[2] = test system: A498 renal
[3] = test system: A549 NSCLC
[4] = test system: ACHN renal
[5] = test system: BT-549 breast
[6] = test system: CAKI-1 renal
[7] = test system: CCRF-CEM leukemia
[8] = test system: COLO 205 colon
[9] = test system: DU-145 prostate
[10] = test system: EKVX NSCLC
[11] = test system: HCC-2998 colon
[12] = test system: HCT-116 colon
[13] = test system: HCT-15 colon
[14] = test system: HOP-62 NSCLC
[15] = test system: HOP-92 NSCLC
[16] = test system: HS 578T breast
[17] = test system: HT29 colon
[18] = test system: IGROV1 ovarian
[19] = test system: K-562 leukemia
[20] = test system: KM12 colon
[21] = test system: LOX IMVI melanoma
[22] = test system: M14 melanoma
[23] = test system: MALME-3M melanoma
[24] = test system: MCF7 breast
[25] = test system: MDA-MB-231 breast
[26] = test system: MDA-MB-435
[27] = test system: MOLT-4 leukemia
[28] = test system: NCI-H226 lung
[29] = test system: NCI-H23 lung
[30] = test system: NCI-H460 lung
[31] = test system: NCI-H522 lung
[32] = test system: OVCAR-3 ovarian
[33] = test system: OVCAR-4 ovarian
[34] = test system: OVCAR-5 ovarian
[35] = test system: OVCAR-8 ovarian
[36] = test system: PC-3 prostate
[37] = test system: RPMI-8226 leukemia
[38] = test system: RXF 393 renal
[39] = test system: SF-268 CNS
[40] = test system: SF-295 CNS
[41] = test system: SF-539 CNS
[42] = test system: SK-MEL-2 melanoma
[43] = test system: SK-MEL-28 melanoma
[44] = test system: SK-MEL-5 melanoma
[45] = test system: SK-OV-3 ovarian
[46] = test system: SN12C renal
[47] = test system: SNB-19 CNS
[48] = test system: SNB-75 CNS
[49] = test system: SW-620 colon
[50] = test system: T-47D breast
[51] = test system: TK-10 renal
[52] = test system: U251 CNS
[53] = test system: UACC-257 melanoma
[54] = test system: UACC-62 melanoma
[55] = test system: UO-31 renal

CC1SC(c2ccc(Cl)c(Cl)c2)N(NC(=O)C(O)c2ccccc2)C1=O (stereo not given)
GI50 [1]: 79.6 µM | TGI [1]: > 100 µM | GI50 [2]: 77.1 µM | TGI [2]: > 100 µM | GI50 [3]: 29.6 µM | TGI [3]: 85.4 µM | GI50 [4]: 33.3 µM | TGI [4]: > 100 µM | GI50 [5]: 45 µM | TGI [5]: > 100 µM | GI50 [6]: 30.7 µM | TGI [6]: > 100 µM | GI50 [7]: 55.1 µM | TGI [7]: > 100 µM | GI50 [8]: 44.7 µM | TGI [8]: > 100 µM | GI50 [9]: 59.2 µM | TGI [9]: > 100 µM | GI50 [10]: 43.7 µM | TGI [10]: > 100 µM | GI50 [11]: 36.9 µM | TGI [11]: > 100 µM | GI50 [12]: 43.2 µM | TGI [12]: > 100 µM | GI50 [13]: 45.5 µM | TGI [13]: > 100 µM | GI50 [14]: 85.1 µM | TGI [14]: > 100 µM | GI50 [15]: 40.8 µM | TGI [15]: > 100 µM | GI50 [16]: 51.1 µM | TGI [16]: > 100 µM | GI50 [17]: 32.3 µM | TGI [17]: > 100 µM | GI50 [18]: 28.5 µM | TGI [18]: 74.6 µM | GI50 [19]: 57.1 µM | TGI [19]: > 100 µM | GI50 [20]: 42.6 µM | TGI [20]: > 100 µM | GI50 [21]: 55.2 µM | TGI [21]: > 100 µM | GI50 [22]: 42.5 µM | TGI [22]: > 100 µM | GI50 [23]: 46.2 µM | TGI [23]: > 100 µM | GI50 [24]: 47.1 µM | TGI [24]: > 100 µM | GI50 [25]: 31.3 µM | TGI [25]: > 100 µM | GI50 [26]: 41.8 µM | TGI [26]: > 100 µM | GI50 [27]: 26.6 µM | TGI [27]: 82.2 µM | GI50 [28]: 33.6 µM | TGI [28]: > 100 µM | GI50 [29]: 33.3 µM | TGI [29]: > 100 µM | GI50 [30]: 33.5 µM | TGI [30]: > 100 µM | GI50 [31]: 28.4 µM | TGI [31]: 98.5 µM | GI50 [32]: 25.9 µM | TGI [32]: 77.6 µM | GI50 [33]: 32.6 µM | TGI [33]: 91.2 µM | GI50 [34]: 70.1 µM | TGI [34]: > 100 µM | GI50 [35]: 34.1 µM | TGI [35]: > 100 µM | GI50 [36]: 35 µM | TGI [36]: > 100 µM | GI50 [37]: 25 µM | TGI [37]: 66 µM | GI50 [38]: 30.3 µM | TGI [38]: 83.2 µM | GI50 [39]: 55.7 µM | TGI [39]: > 100 µM | GI50 [40]: 24.5 µM | TGI [40]: 67.5 µM | GI50 [41]: 72.6 µM | TGI [41]: > 100 µM | GI50 [42]: 45.4 µM | TGI [42]: > 100 µM | GI50 [43]: 38.5 µM | TGI [43]: > 100 µM | GI50 [44]: 38.1 µM | TGI [44]: > 100 µM | GI50 [45]: > 100 µM | TGI [45]: > 100 µM | GI50 [46]: 44.1 µM | TGI [46]: > 100 µM | GI50 [47]: 93.2 µM | TGI [47]: > 100 µM | GI50 [48]: 24.8 µM | TGI [48]: 90.1 µM | GI50 [49]: 77.2 µM | TGI [49]: > 100 µM | GI50 [50]: 67.5 µM | TGI [50]: > 100 µM | GI50 [51]: 41.3 µM | TGI [51]: > 100 µM | GI50 [52]: 41 µM | TGI [52]: > 100 µM | GI50 [53]: 35.1 µM | TGI [53]: > 100 µM | GI50 [54]: 25.2 µM | TGI [54]: 86.1 µM | GI50 [55]: 36.6 µM | TGI [55]: > 100 µM
